System: PKC
Test: PKC activity in mononuclear cells of STZ-induced diabetic rats after treatment
Assay type: in vivo, rat
Details: male Sprague-Dawley rats, STZ-induced diabetes (56% increase vs control), insulin pellet inserted subcutaneously, after 2 weeks
Protocol: Monocytes of rats and also human control subjects and patients with diabetes were isolated from blood with anticoagulant of sodium citrate. The blood sample was put onto the same volume of Histopaque-1077 (Sigma) and centrifuged at 400×g for 30 minutes at room temperature. The layer containing mononuclear cells was transferred to a new tube and washed with phosphate-buffered saline (PBS). After centrifugation at 400×g for 10 minutes, cell pellet was suspended with a solution of 144 mM NH4Cl and 17 mM Tris-HCl, pH 7.65 to lyse the contaminated red blood cells. Mononuclear cells were washed with PBS and used in this study.
Mononuclear cells of human and rats and retina of rats were suspended in a buffer containing 137 mM NaCl, 4.3 mM KCl, […] Na2HPO4, 0.4 mM KH2PO4, 5.5 mM D-Glucose, 10 mM MgCl2, 1 mM CaCl2, 25 mM β-glycerophosphate, and 20 mM HEPES, pH 7.2. […] The paper was put into a scientillation vial and radioactivity of ^32p was assayed by scientillation counter. The paper was put into a scintillation vial and radioactivity of ^32p incorporated into substrate peptide per minute per mg of protein, and calculated by the difference between the activity in the presence of substrate peptide and the activity in the absence of the peptide.
Male Sprague-Dawley rats at the age of 6 weeks were used in this study. […] PKC activity in these tissues was measured as described below.

## insulin
  PKC activity in rat mononuclear cells: restored to the level of control rats

Source: US6811993B2, “Diagnostic and screening methods based on monocyte PKC activity” (Joslin Diabetes Center, Inc., priority 2000, dated 2004)
